What was measured:
[1] = biological target: Glutamate NMDA receptor (Rattus norvegicus) (UniProt P35439+Q00959+Q00960+Q00961+Q62645+Q8VHN2+Q9R1M7); assay: NMDA Eurofins-Cerep binding assay; assay type: protein-complex assay; design: ligand concentration 5 nM; conditions: filed as antagonist, Compound concentration 10.0 uM
[2] = biological target: T1, Muscarinic acetylcholine receptor M4 (Homo sapiens) (UniProt P08173); assay: M4 (h) Eurofins-Cerep binding assay; design: ligand concentration 0.2 nM; conditions: filed as antagonist, Compound concentration 10.0 uM
T1 sequence (whole entry): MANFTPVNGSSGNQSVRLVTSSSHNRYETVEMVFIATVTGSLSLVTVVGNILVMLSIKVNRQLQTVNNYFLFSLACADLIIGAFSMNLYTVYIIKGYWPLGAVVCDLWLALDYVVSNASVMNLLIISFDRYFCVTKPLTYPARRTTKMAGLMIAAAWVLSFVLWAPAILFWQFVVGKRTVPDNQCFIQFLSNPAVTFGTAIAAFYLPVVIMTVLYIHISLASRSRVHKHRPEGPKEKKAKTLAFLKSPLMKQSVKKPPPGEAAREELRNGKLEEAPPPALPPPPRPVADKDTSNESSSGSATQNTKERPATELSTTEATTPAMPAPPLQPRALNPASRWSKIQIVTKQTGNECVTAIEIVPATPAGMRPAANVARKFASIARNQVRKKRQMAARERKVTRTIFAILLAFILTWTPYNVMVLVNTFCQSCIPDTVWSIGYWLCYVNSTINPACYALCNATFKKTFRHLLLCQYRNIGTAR

[3] = biological target: voltage-gated L-type Ca2+ channel (dihydropyridine site) (Rattus norvegicus, UniProt P22002+P27732+Q02485); assay: Ca2+ channel (L, dihydropyridine site) Eurofins-Cerep binding assay; design: incubation time 90 min, incubation temperature RT, ligand concentration 0.1 nM; conditions: rat cerebral cortex (source of protein), probe [3H]nitrendipine (0.1 nM), compound concentration 10 uM, read-out: % Inhibition of Control Specific Binding (Mean n=2)
[4] = biological target: voltage-gated Na+ channel (site 2) (Rattus norvegicus, UniProt F1LQQ7+O08562+O88420+O88457+P04774+P04775+P08104+P15389+P15390+Q62968); assay: Na+ channel (site 2) Eurofins-Cerep binding assay; design: incubation time 60 min, incubation temperature 37°C, ligand concentration 10 nM; conditions: rat cerebral cortex (source of protein), probe [3H]batrachotoxin (10 nM), compound concentration 10 uM, read-out: % Inhibition of Control Specific Binding (Mean n=2)
[5] = biological target: RAC-alpha serine/threonine-protein kinase (Homo sapiens) (UniProt P31749); conditions: Compound concentration 1000.0 nM
[6] = biological target: Serine/threonine-protein kinase BRSK2 (Homo sapiens) (UniProt Q8IWQ3); conditions: Compound concentration 1000.0 nM
[7] = biological target: Calcium/calmodulin-dependent protein kinase type IV (Homo sapiens) (UniProt Q16566); conditions: Compound concentration 1000.0 nM
Sequence of Calcium/calmodulin-dependent protein kinase type IV (Homo sapiens) (Q16566 whole entry): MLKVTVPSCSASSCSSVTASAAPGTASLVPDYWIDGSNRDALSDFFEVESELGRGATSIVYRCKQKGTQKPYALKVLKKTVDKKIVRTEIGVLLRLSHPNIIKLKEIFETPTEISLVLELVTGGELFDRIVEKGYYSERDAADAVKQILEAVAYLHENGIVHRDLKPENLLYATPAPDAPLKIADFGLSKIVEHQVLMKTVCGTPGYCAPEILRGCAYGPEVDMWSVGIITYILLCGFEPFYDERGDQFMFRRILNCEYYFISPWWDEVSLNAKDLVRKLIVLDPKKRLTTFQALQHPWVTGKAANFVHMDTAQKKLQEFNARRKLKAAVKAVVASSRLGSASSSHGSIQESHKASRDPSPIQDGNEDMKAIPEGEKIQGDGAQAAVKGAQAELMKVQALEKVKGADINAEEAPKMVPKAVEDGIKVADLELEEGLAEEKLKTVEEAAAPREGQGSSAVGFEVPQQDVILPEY

[8] = biological target: Cyclin-dependent kinase 13 (Homo sapiens) (UniProt Q14004); conditions: Compound concentration 1000.0 nM
[9] = test system: Epidermal growth factor receptor (Homo sapiens), P00533 [UNDEFINED MUTATION]; conditions: Compound concentration 1000.0 nM
[10] = test system: Epidermal growth factor receptor (Homo sapiens), P00533 [L858R]; conditions: Compound concentration 1000.0 nM
[11] = test system: Epidermal growth factor receptor (Homo sapiens), P00533 [L861Q]; conditions: Compound concentration 1000.0 nM
[12] = biological target: Ephrin type-A receptor 7 (Homo sapiens) (UniProt Q15375); conditions: Compound concentration 1000.0 nM
Sequence of Ephrin type-A receptor 7 (Homo sapiens) (Q15375 28-998 limits assumed): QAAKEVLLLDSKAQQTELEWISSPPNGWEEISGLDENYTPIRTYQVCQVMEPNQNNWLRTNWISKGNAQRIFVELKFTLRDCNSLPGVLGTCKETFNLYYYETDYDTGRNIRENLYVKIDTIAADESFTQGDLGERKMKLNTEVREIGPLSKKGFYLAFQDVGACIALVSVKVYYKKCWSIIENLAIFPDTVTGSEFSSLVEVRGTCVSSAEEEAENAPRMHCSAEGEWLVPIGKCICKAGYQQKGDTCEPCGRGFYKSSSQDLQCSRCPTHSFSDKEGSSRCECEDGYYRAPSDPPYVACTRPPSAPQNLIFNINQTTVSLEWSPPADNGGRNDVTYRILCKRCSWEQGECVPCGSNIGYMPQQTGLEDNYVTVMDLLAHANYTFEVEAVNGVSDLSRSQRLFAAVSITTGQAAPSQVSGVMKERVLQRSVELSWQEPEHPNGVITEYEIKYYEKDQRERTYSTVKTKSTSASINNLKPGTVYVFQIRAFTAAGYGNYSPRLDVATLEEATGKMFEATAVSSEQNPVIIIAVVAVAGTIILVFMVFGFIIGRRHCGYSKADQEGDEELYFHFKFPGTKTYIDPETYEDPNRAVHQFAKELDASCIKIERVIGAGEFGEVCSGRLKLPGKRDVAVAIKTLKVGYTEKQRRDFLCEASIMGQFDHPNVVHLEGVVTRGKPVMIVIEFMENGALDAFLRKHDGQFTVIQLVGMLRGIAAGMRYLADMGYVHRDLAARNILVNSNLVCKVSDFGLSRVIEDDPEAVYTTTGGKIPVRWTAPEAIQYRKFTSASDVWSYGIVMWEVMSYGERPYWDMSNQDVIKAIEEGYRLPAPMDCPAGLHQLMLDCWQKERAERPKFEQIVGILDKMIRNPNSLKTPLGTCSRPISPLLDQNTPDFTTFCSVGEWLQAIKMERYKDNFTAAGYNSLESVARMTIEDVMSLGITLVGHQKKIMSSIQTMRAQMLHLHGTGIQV

[13] = biological target: Mitogen-activated protein kinase 3 (Homo sapiens) (UniProt P27361); conditions: Compound concentration 1000.0 nM
[14] = test system: Receptor-type tyrosine-protein kinase FLT3 (Homo sapiens), P36888 [D835H]; conditions: Compound concentration 1000.0 nM
[15] = test system: Receptor-type tyrosine-protein kinase FLT3 (Homo sapiens), P36888 [D835Y]; conditions: Compound concentration 1000.0 nM
[16] = test system: Receptor-type tyrosine-protein kinase FLT3 (Homo sapiens), P36888 [K663Q]; conditions: Compound concentration 1000.0 nM
[17] = test system: Receptor-type tyrosine-protein kinase FLT3 (Homo sapiens), P36888 [R834Q]; conditions: Compound concentration 1000.0 nM
[18] = biological target: Mitogen-activated protein kinase kinase kinase kinase 1 (Homo sapiens) (UniProt Q92918); conditions: Compound concentration 1000.0 nM
Sequence of Mitogen-activated protein kinase kinase kinase kinase 1 (Homo sapiens) (Q92918 whole entry, looked up, the tested form may be a part): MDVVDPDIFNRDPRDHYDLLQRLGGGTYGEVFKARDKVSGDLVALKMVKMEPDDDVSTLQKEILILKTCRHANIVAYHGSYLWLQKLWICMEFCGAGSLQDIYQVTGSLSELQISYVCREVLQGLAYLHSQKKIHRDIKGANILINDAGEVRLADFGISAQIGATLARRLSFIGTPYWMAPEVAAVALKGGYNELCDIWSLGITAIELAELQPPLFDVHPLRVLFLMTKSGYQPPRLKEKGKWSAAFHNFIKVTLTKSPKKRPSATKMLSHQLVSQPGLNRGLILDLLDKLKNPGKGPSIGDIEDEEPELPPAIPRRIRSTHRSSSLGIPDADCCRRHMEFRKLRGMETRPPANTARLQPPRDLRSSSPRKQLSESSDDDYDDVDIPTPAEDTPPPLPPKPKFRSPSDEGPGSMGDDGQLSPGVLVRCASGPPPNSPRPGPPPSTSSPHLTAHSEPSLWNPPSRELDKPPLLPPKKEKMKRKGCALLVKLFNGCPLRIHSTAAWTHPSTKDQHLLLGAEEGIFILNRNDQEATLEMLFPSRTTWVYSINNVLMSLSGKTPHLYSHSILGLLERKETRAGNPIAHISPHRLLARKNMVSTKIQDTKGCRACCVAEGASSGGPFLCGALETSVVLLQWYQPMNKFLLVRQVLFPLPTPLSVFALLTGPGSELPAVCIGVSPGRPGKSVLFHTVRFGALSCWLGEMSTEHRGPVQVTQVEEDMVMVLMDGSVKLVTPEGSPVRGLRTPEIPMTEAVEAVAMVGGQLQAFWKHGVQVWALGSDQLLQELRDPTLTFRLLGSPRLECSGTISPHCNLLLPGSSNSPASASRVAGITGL

[19] = biological target: LIM domain kinase 1 (Homo sapiens) (UniProt P53667); conditions: Compound concentration 1000.0 nM
[20] = biological target: Mitogen-activated protein kinase kinase kinase 15 (Homo sapiens) (UniProt Q6ZN16); conditions: Compound concentration 1000.0 nM
[21] = biological target: Microtubule-associated serine/threonine-protein kinase 1 (Homo sapiens) (UniProt Q9Y2H9); conditions: Compound concentration 1000.0 nM
Sequence of Microtubule-associated serine/threonine-protein kinase 1 (Homo sapiens) (Q9Y2H9 whole entry, looked up): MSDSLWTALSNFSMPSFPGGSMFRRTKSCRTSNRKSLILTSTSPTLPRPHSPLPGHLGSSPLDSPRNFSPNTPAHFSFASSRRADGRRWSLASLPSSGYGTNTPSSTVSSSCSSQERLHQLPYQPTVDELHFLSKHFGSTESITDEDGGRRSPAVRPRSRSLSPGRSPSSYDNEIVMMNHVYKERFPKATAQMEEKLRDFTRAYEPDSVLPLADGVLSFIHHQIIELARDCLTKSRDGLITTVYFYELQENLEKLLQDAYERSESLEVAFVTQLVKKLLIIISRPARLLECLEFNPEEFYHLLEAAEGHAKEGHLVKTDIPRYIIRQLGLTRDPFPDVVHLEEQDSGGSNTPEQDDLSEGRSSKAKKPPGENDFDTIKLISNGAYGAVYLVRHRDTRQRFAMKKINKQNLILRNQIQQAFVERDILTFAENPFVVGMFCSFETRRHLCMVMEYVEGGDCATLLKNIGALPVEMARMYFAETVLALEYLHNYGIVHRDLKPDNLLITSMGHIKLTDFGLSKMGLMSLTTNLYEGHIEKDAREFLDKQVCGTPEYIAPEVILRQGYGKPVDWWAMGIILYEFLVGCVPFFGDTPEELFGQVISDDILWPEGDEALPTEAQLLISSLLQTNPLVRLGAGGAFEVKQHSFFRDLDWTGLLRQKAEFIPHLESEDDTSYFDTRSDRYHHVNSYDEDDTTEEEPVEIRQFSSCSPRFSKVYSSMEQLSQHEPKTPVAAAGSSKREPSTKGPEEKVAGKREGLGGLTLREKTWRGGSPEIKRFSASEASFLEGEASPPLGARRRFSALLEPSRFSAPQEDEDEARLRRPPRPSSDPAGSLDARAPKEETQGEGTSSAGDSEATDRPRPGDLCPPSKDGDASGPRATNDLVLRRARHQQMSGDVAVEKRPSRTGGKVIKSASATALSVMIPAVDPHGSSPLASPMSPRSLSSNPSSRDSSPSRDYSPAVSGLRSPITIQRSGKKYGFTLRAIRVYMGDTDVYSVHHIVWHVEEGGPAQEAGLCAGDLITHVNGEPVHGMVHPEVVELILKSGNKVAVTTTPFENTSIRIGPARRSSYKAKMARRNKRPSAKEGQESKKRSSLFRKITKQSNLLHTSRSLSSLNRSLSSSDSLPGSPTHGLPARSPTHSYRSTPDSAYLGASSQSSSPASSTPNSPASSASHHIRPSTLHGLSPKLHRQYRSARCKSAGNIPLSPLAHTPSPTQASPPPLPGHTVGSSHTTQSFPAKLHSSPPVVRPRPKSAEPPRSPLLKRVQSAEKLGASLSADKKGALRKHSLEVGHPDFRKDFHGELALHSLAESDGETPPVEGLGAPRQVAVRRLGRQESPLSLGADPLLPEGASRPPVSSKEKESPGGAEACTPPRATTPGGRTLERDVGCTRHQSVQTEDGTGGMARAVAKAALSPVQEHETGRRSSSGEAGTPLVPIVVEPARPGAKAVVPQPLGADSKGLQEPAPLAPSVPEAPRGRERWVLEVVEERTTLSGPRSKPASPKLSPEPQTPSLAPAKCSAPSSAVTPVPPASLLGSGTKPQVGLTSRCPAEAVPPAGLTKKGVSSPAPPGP

[22] = biological target: Maternal embryonic leucine zipper kinase (Homo sapiens) (UniProt Q14680); conditions: Compound concentration 1000.0 nM
[23] = biological target: Cyclin-dependent kinase 2 homolog (Plasmodium falciparum (isolate 3D7)) (UniProt P61075); conditions: Compound concentration 1000.0 nM
[24] = biological target: Phosphatidylinositol 3-kinase C2 domain-containing subunit gamma (Homo sapiens) (UniProt O75747); conditions: Compound concentration 1000.0 nM
[25] = biological target: Phosphatidylinositol 4,5-bisphosphate 3-kinase catalytic subunit gamma isoform (Homo sapiens) (UniProt P48736); conditions: Compound concentration 1000.0 nM
[26] = biological target: Serine/threonine-protein kinase pim-2 (Homo sapiens) (UniProt Q9P1W9); conditions: Compound concentration 1000.0 nM
[27] = biological target: Interferon-induced, double-stranded RNA-activated protein kinase (Homo sapiens) (UniProt P19525); conditions: Compound concentration 1000.0 nM
[28] = test system: Proto-oncogene tyrosine-protein kinase receptor Ret (Homo sapiens), P07949 [M918T]; conditions: Compound concentration 1000.0 nM
[29] = biological target: Ribosomal protein S6 kinase alpha-4 (Homo sapiens) (UniProt O75676); conditions: Compound concentration 1000.0 nM
[30] = biological target: Serine/threonine-protein kinase Sgk2 (Homo sapiens) (UniProt Q9HBY8); conditions: Compound concentration 1000.0 nM
[31] = biological target: High affinity nerve growth factor receptor (Homo sapiens) (UniProt P04629); conditions: Compound concentration 1000.0 nM
[32] = biological target: Dual specificity protein kinase TTK (Homo sapiens) (UniProt P33981); conditions: Compound concentration 1000.0 nM
[33] = biological target: Non-receptor tyrosine-protein kinase TYK2 (Homo sapiens) (UniProt P29597); conditions: Compound concentration 1000.0 nM
Sequence of Non-receptor tyrosine-protein kinase TYK2 (Homo sapiens) (P29597 whole entry): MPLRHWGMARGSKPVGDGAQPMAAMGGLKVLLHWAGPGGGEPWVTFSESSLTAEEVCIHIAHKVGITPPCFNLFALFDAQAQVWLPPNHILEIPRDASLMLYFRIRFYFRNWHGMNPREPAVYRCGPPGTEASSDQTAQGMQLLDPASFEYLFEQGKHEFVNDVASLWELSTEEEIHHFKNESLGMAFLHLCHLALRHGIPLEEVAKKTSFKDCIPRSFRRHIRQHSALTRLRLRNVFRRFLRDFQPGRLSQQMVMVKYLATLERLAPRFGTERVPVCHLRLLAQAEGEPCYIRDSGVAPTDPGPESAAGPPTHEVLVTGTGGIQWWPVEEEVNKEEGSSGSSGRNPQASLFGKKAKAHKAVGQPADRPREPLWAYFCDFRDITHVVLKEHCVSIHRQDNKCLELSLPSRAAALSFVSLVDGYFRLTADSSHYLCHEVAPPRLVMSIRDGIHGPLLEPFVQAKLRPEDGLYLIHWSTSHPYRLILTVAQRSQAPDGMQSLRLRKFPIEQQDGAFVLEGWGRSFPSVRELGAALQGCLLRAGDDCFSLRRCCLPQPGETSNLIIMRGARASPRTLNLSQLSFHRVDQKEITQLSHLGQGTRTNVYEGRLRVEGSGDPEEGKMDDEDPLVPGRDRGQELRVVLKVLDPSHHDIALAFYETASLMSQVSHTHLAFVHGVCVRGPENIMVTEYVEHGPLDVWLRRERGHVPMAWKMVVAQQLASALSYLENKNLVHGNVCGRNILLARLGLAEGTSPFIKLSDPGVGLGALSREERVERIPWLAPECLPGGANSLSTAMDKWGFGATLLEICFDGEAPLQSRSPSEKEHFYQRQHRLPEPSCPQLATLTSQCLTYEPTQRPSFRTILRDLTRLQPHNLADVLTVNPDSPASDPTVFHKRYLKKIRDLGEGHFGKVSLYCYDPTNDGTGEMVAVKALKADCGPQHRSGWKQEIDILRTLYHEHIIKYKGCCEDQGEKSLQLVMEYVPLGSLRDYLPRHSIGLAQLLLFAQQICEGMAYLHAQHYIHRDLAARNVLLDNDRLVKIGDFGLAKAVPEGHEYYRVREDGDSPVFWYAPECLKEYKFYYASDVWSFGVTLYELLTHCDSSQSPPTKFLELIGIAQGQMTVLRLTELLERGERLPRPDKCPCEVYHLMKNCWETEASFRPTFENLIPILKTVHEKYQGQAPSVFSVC

[34] = biological target: Tyrosine-protein kinase Yes (Homo sapiens) (UniProt P07947); conditions: Compound concentration 1000.0 nM

Compound	% Inhibition of Control Specific Binding (Mean n=2) [1] [%]	% Inhibition of Control Specific Binding (Mean n=2) [2] [%]	inhibition at 90 min, 10 µM [3] [%]	inhibition at 60 min, 10 µM [4] [%]	residual activity [5] [%]	residual activity [6] [%]	residual activity [7] [%]	residual activity [8] [%]	residual activity [9] [%]	residual activity [10] [%]	residual activity [11] [%]	residual activity [12] [%]	residual activity [13] [%]	residual activity [14] [%]	residual activity [15] [%]	residual activity [16] [%]	residual activity [17] [%]	residual activity [18] [%]	residual activity [19] [%]	residual activity [20] [%]	further results
CCCOc1ccc([C@H]2[C@H](C(=O)O)[C@@H](c3ccc4c(c3)OCO4)CN2CC(=O)Nc2c(CC)cccc2CC)cc1 [A-192621]	3.3	-2	30.3	29.1	97	97	89	45	100	100	100	98	93	92	100	100	91	92	100	73	residual activity [21]: 93%; residual activity [22]: 65%; residual activity [23]: 87%; residual activity [24]: 75%; residual activity [25]: 68%; residual activity [26]: 91%; residual activity [27]: 100%; residual activity [28]: 84%; residual activity [29]: 68%; residual activity [30]: 54%; residual activity [31]: 84%; residual activity [32]: 94%; residual activity [33]: 51%; residual activity [34]: 99%
CCCOc1ccc([C@@H]2[C@@H](C(=O)O)[C@H](c3ccc4c(c3)OCO4)CN2CC(=O)Nc2c(CC)cccc2CC)cc1 [A-1806262]	6.6	-1.8	27.2	24.4	100	100	96	81	78	87	100	92	93	100	100	100	100	92	90	99	residual activity [21]: 100%; residual activity [22]: 84%; residual activity [23]: 97%; residual activity [24]: 78%; residual activity [25]: 73%; residual activity [26]: 99%; residual activity [27]: 100%; residual activity [28]: 97%; residual activity [29]: 90%; residual activity [30]: 69%; residual activity [31]: 97%; residual activity [32]: 100%; residual activity [33]: 74%; residual activity [34]: 90%

From ChEMBL document CHEMBL4507261, “Data for DCP probe A-192621” (2021)
